ChEMBL document CHEMBL1201862, “PubChem BioAssay data set” (2004)
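Five concentrations, 48 hours, 96-well plates. GI50 is the concentration that inhibits growth by half.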 Active and inactive are the calls of the source. No stated cut-off is given here; in the data, active = GI50 up to about 1.1 µM and inactive = higher.

Tests used:
Assay in all cases: inhibition of tumour cell growth, NCI panel, 48 h
[1] = system: BT-549
[2] = system: OVCAR-3
[3] = system: DU-145
[4] = system: HCT-15
[5] = system: ACHN
[6] = system: MCF7
[7] = system: IGROV-1
[8] = system: SW-620
[9] = system: UACC-257
[10] = system: SF-268
[11] = system: A498
[12] = system: CAKI-1
[13] = system: MOLT-4
[14] = system: OVCAR-4
[15] = system: SN12C
[16] = system: MDA-MB-435
[17] = system: LOX IMVI
[18] = system: HT-29
[19] = system: PC-3
[20] = system: U-251
[21] = system: CCRF-CEM
[22] = system: NCI-H460
[23] = system: SR
[24] = system: MDA-N
[25] = system: MDA-MB-231
[26] = system: SF-539
[27] = system: COLO 205
[28] = system: HCT-116
[29] = system: NCI-H23
[30] = system: TK-10
[31] = system: SNB-19
[32] = system: SK-MEL-2
[33] = system: 786-0
[34] = system: K562
[35] = system: RXF 393
[36] = system: M14
[37] = system: T47D
[38] = system: HOP-92
[39] = system: UO-31
[40] = system: HL-60
[41] = system: KM12
[42] = system: NCI-H226
[43] = system: SF-295
[44] = system: A549
[45] = system: RPMI-8226
[46] = system: NCI/ADR-RES
[47] = system: OVCAR-5
[48] = system: HOP-62
[49] = system: SK-MEL-5
[50] = system: NCI-H522
[51] = system: EKVX
[52] = system: OVCAR-8
[53] = system: SK-MEL-28
[54] = system: Malme-3M
[55] = system: HCC 2998
[56] = system: Hs-578T
[57] = system: UACC-62
[58] = system: SK-OV-3
[59] = system: SNB-75

## CCOC(=O)c1cc2cc3c4c(c2oc1=O)CCCN4CCC3
[1]
  GI50: 31.4 µM (inactive)
[2]
  GI50: 29.9 µM (inactive)
[3]
  GI50: 31.6 µM (inactive)
[4]
  GI50: 25.2 µM
[5]
  GI50: 34 µM (inactive)
[6]
  GI50: 23.2 µM (inactive)
[7]
  GI50: 27.2 µM (inactive)
[8]
  GI50: 67.9 µM (inactive)
[9]
  GI50: 49.5 µM (inactive)
[10]
  GI50: 19.2 µM (inactive)
[11]
  GI50: 17.6 µM (inactive)
[12]
  GI50: 47.3 µM (inactive)
[13]
  GI50: 25.8 µM (inactive)
[14]
  GI50: 34 µM (inactive)
[15]
  GI50: 30.8 µM (inactive)
[16]
  GI50: 28.3 µM (inactive)
[17]
  GI50: 26.1 µM (inactive)
[18]
  GI50: 31.8 µM (inactive)
[19]
  GI50: 29 µM (inactive)
[20]
  GI50: 28.8 µM (inactive)
[21]
  GI50: 29.4 µM (inactive)
[22]
  GI50: 48.3 µM (inactive)
[23]
  GI50: 22.8 µM (inactive)
[24]
  GI50: 37.2 µM (inactive)
[25]
  GI50: 22.3 µM (inactive)
[26]
  GI50: 23.5 µM (inactive)
[27]
  GI50: 24.7 µM (inactive)
[28]
  GI50: 27 µM (inactive)
[29]
  GI50: 30.1 µM (inactive)
[30]
  GI50: 21.6 µM (inactive)
[31]
  GI50: 42.6 µM (inactive)
[32]
  GI50: 24.7 µM (inactive)
[33]
  GI50: 40 µM (inactive)
[34]
  GI50: 38.3 µM (inactive)
[35]
  GI50: 10.4 µM (inactive)
[36]
  GI50: 32.3 µM (inactive)
[37]
  GI50: 15.2 µM (inactive)
[38]
  GI50: 17.1 µM (inactive)
[39]
  GI50: 25.9 µM (inactive)
[40]
  GI50: 16.9 µM (inactive)
[41]
  GI50: 23.8 µM (inactive)
[42]
  GI50: 14.7 µM (inactive)
[43]
  GI50: 40.4 µM (inactive)
[44]
  GI50: 21.5 µM (inactive)
[45]
  GI50: 19.3 µM (inactive)
[46]
  GI50: 22.2 µM (inactive)
[47]
  GI50: > 100 µM (inactive)
[48]
  GI50: 26.2 µM (inactive)
[49]
  GI50: 13.4 µM (inactive)
[50]
  GI50: 19.4 µM (inactive)
[51]
  GI50: 12 µM (inactive)
[52]
  GI50: 22.1 µM (inactive)
[53]
  GI50: 43.4 µM (inactive)
[54]
  GI50: 49.3 µM (inactive)
[55]
  GI50: 78.9 µM (inactive)
[56]
  GI50: 25 µM (inactive)

## Cc1cc(O)c2c(c1O)C(=O)c1c(O)ccc(O)c1C2=O [Cynodontin]
[1]
  GI50: > 100 µM (inactive)
[2]
  GI50: > 100 µM (inactive)
[3]
  GI50: > 100 µM (inactive)
[4]
  GI50: > 100 µM
[5]
  GI50: > 100 µM (inactive)
[6]
  GI50: > 100 µM (inactive)
[7]
  GI50: > 100 µM (inactive)
[8]
  GI50: > 100 µM (inactive)
[57]
  GI50: > 100 µM (inactive)
[9]
  GI50: > 100 µM (inactive)
[10]
  GI50: > 100 µM (inactive)
[11]
  GI50: > 100 µM (inactive)
[12]
  GI50: > 100 µM (inactive)
[13]
  GI50: > 100 µM (inactive)
[14]
  GI50: > 100 µM (inactive)
[15]
  GI50: > 100 µM (inactive)
[16]
  GI50: > 100 µM (inactive)
[17]
  GI50: > 100 µM (inactive)
[18]
  GI50: > 100 µM (inactive)
[19]
  GI50: > 100 µM (inactive)
[20]
  GI50: > 100 µM (inactive)
[21]
  GI50: > 100 µM (inactive)
[22]
  GI50: > 100 µM (inactive)
[23]
  GI50: > 100 µM (inactive)
[24]
  GI50: > 100 µM (inactive)
[25]
  GI50: > 100 µM (inactive)
[26]
  GI50: > 100 µM (inactive)
[27]
  GI50: > 100 µM (inactive)
[58]
  GI50: > 100 µM (inactive)
[28]
  GI50: > 100 µM (inactive)
[29]
  GI50: > 100 µM (inactive)
[30]
  GI50: > 100 µM (inactive)
[31]
  GI50: > 100 µM (inactive)
[32]
  GI50: > 100 µM (inactive)
[33]
  GI50: 82 µM (inactive)
[34]
  GI50: > 100 µM (inactive)
[35]
  GI50: > 100 µM (inactive)
[36]
  GI50: > 100 µM (inactive)
[37]
  GI50: > 100 µM (inactive)
[38]
  GI50: > 100 µM (inactive)
[40]
  GI50: > 100 µM (inactive)
[41]
  GI50: > 100 µM (inactive)
[42]
  GI50: > 100 µM (inactive)
[43]
  GI50: > 100 µM (inactive)
[44]
  GI50: > 100 µM (inactive)
[45]
  GI50: > 100 µM (inactive)
[46]
  GI50: > 100 µM (inactive)
[47]
  GI50: > 100 µM (inactive)
[48]
  GI50: > 100 µM (inactive)
[49]
  GI50: > 100 µM (inactive)
[50]
  GI50: > 100 µM (inactive)
[59]
  GI50: 52.5 µM (inactive)
[51]
  GI50: > 100 µM (inactive)
[52]
  GI50: > 100 µM (inactive)
[54]
  GI50: > 100 µM (inactive)
[55]
  GI50: > 100 µM (inactive)
[56]
  GI50: > 100 µM (inactive)

## CSc1nc(C)c(CCOC(C)=O)c(Cl)n1
[1]
  GI50: > 100 µM (inactive)
[2]
  GI50: > 100 µM (inactive)
[3]
  GI50: > 100 µM (inactive)
[4]
  GI50: > 100 µM
[5]
  GI50: > 100 µM (inactive)
[6]
  GI50: > 100 µM (inactive)
[7]
  GI50: > 100 µM (inactive)
[8]
  GI50: > 100 µM (inactive)
[57]
  GI50: > 100 µM (inactive)
[9]
  GI50: > 100 µM (inactive)
[10]
  GI50: > 100 µM (inactive)
[11]
  GI50: 48 µM (inactive)
[12]
  GI50: > 100 µM (inactive)
[13]
  GI50: > 100 µM (inactive)
[14]
  GI50: > 100 µM (inactive)
[15]
  GI50: > 100 µM (inactive)
[16]
  GI50: > 100 µM (inactive)
[17]
  GI50: > 100 µM (inactive)
[18]
  GI50: > 100 µM (inactive)
[19]
  GI50: > 100 µM (inactive)
[20]
  GI50: > 100 µM (inactive)
[21]
  GI50: > 100 µM (inactive)
[22]
  GI50: > 100 µM (inactive)
[23]
  GI50: > 100 µM (inactive)
[24]
  GI50: > 100 µM (inactive)
[25]
  GI50: > 100 µM (inactive)
[26]
  GI50: > 100 µM (inactive)
[27]
  GI50: > 100 µM (inactive)
[58]
  GI50: > 100 µM (inactive)
[28]
  GI50: > 100 µM (inactive)
[29]
  GI50: > 100 µM (inactive)
[30]
  GI50: > 100 µM (inactive)
[31]
  GI50: > 100 µM (inactive)
[33]
  GI50: > 100 µM (inactive)
[34]
  GI50: > 100 µM (inactive)
[35]
  GI50: > 100 µM (inactive)
[36]
  GI50: > 100 µM (inactive)
[37]
  GI50: > 100 µM (inactive)
[38]
  GI50: > 100 µM (inactive)
[39]
  GI50: > 100 µM (inactive)
[40]
  GI50: > 100 µM (inactive)
[41]
  GI50: > 100 µM (inactive)
[42]
  GI50: > 100 µM (inactive)
[43]
  GI50: > 100 µM (inactive)
[44]
  GI50: > 100 µM (inactive)
[45]
  GI50: > 100 µM (inactive)
[46]
  GI50: > 100 µM (inactive)
[47]
  GI50: > 100 µM (inactive)
[48]
  GI50: > 100 µM (inactive)
[49]
  GI50: > 100 µM (inactive)
[50]
  GI50: > 100 µM (inactive)
[59]
  GI50: > 100 µM (inactive)
[51]
  GI50: > 100 µM (inactive)
[52]
  GI50: > 100 µM (inactive)
[53]
  GI50: > 100 µM (inactive)
[54]
  GI50: > 100 µM (inactive)
[55]
  GI50: > 100 µM (inactive)
[56]
  GI50: > 100 µM (inactive)
